In ChEMBL document CHEMBL1201862, “PubChem BioAssay data set” (2004):
Calls of active or inactive are those of the source.

What was measured:
[1] = target: T1, Polyadenylate-binding protein 1 (Homo sapiens, UniProt P11940); test: PABP1 MLLE–PAM2 interaction inhibitors, dose response, miRNA deadenylation inhibitor project, biochemical, fluorescence polarization, Cy5-PAM2 peptide, secondary (AID 602260); format: functional; conditions: read-out: IC50_Mean
[2] = target: T1, Polyadenylate-binding protein 1; test: PABP1 MLLE–PAM2 binding inhibitor potency, dose response, biochemical, fluorescence polarization, FITC-PAM2 peptide (AID 602259); format: functional; conditions: read-out: IC50_Mean
[3] = target: T2, RNA-binding protein pos-1 (Caenorhabditis elegans, UniProt G5EF15); test: inhibitors of POS-1/mex-3 RNA binding, dose response, biochemical, fluorescence polarization (AID 1964);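 also: purified POS-1 fused to maltose binding protein made in E. coli; potency of compounds blocking POS-1 binding to fluorescent RNA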
T2 sequence (G5EF15 whole entry): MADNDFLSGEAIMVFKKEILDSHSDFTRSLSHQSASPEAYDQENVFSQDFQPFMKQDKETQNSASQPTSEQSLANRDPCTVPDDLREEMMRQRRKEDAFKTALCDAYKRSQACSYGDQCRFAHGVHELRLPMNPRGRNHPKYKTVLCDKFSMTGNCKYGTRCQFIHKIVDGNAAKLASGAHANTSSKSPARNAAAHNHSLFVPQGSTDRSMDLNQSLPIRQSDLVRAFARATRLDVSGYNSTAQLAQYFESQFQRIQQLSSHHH

[4] = target: T3, Zinc finger protein mex-5 (Caenorhabditis elegans, UniProt Q9XUB2); test: MEX-5/TCR-2 RNA interaction inhibitors, dose response, biochemical, C. elegans, fluorescence polarization (AID 1960)
T3 sequence (Q9XUB2 whole entry): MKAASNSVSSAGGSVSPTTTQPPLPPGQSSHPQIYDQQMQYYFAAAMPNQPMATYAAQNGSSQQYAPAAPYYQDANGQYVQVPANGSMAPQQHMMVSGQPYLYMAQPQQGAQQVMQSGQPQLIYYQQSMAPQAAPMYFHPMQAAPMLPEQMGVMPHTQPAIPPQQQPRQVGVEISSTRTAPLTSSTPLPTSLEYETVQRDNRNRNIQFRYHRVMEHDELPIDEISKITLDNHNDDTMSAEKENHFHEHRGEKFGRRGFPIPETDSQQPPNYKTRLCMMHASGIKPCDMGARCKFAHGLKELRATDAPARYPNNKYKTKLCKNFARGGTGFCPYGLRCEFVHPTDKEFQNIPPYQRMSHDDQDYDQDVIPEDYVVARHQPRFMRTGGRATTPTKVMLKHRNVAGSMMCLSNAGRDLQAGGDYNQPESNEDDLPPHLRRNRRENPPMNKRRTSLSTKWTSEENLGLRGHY

[5] = target: T4, Ubiquitin-conjugating enzyme E2 N (Homo sapiens, UniProt P61088); format: functional;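 also: Dose-response confirmation in a TR-FRET assay detecting UBC13-driven polyubiquitin chain formation, inhibition measured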
T4 sequence (P61088 whole entry): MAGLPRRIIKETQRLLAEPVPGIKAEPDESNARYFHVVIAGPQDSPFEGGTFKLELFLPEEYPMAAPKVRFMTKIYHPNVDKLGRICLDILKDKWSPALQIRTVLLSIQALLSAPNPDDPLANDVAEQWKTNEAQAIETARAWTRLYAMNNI

[6] = target: T5, Coagulation factor XII (Homo sapiens, UniProt P00748); format: functional;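 also: activated factor XIIa alpha cleaving a fluorogenic AMC peptide substrate; inhibitor potency from loss of enzyme activity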
T5 sequence (P00748 whole entry): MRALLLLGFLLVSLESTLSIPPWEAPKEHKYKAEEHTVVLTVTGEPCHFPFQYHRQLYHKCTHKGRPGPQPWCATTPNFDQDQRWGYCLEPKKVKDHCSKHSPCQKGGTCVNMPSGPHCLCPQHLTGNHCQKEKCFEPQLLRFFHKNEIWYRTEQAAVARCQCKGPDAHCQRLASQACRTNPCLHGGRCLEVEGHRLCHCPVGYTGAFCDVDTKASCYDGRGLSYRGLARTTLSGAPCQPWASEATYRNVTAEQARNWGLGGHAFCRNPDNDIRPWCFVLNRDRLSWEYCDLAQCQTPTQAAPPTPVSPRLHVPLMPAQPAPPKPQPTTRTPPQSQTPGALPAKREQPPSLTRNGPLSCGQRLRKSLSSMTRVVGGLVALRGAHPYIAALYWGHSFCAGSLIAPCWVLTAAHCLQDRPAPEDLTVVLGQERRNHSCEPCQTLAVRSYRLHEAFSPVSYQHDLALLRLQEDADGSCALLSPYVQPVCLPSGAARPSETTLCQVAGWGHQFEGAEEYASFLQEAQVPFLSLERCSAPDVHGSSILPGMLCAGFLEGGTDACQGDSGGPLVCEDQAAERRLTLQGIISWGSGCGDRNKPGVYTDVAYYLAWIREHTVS

[7] = Shn3 3'UTR reporter inhibitors, dose response, cell-based, Clone20 osteoblasts, firefly luciferase, cherry-picked (AID 624132); format: functional;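 also: firefly luciferase luminescence from reporter carrying the Shn3 3'UTR in osteoblasts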
[8] = control 3'UTR Renilla luciferase suppression, dose response, counter-screen for Shn3 inhibitor project, cell-based, Clone20-Shn3RL, cherry-picked (AID 624133); format: functional
[9] = system: HEK293; test: inhibitors of LMP1-driven NF-kB reporter, dose response, cell-based, HEK293, luciferase, cherry-pick (AID 588343); format: functional; conditions: Homo sapiens
[10] = cells; format: functional, cell-based
[11] = cells; format: functional, cell-based; remark: listed apart in the source
[12] = target: Large T antigen (Simian virus 40, UniProt P03070); format: functional, Betapolyomavirus macacae;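 also: Confirmatory-stage PubChem screen for compounds that inhibit SV40 T antigen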
[13] = target: T6, Rac GTPase-activating protein 1 (Homo sapiens, UniProt Q9H0H5); test: MgcRacGAP GTPase-activating activity inhibitors, confirmation, biochemical, ADP Hunter fluorescence, primary and confirmatory (AID 624330); format: functional
T6 sequence (Q9H0H5 whole entry): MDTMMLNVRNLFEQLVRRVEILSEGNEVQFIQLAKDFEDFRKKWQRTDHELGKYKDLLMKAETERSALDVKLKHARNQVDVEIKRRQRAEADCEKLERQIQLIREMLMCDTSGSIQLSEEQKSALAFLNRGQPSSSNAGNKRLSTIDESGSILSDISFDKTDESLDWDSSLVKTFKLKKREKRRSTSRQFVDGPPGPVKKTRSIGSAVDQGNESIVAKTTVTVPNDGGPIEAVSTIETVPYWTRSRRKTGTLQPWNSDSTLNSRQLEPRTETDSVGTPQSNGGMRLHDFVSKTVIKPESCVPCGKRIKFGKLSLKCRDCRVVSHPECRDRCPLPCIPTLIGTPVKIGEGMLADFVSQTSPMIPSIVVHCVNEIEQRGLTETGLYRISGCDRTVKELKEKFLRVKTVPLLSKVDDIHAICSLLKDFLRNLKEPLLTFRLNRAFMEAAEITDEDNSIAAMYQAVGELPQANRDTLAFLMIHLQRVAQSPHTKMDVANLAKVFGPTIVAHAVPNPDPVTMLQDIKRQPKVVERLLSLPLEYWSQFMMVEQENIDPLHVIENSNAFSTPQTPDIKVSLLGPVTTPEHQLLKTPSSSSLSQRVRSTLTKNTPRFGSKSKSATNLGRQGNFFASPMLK

T1 sequence (P11940 whole entry): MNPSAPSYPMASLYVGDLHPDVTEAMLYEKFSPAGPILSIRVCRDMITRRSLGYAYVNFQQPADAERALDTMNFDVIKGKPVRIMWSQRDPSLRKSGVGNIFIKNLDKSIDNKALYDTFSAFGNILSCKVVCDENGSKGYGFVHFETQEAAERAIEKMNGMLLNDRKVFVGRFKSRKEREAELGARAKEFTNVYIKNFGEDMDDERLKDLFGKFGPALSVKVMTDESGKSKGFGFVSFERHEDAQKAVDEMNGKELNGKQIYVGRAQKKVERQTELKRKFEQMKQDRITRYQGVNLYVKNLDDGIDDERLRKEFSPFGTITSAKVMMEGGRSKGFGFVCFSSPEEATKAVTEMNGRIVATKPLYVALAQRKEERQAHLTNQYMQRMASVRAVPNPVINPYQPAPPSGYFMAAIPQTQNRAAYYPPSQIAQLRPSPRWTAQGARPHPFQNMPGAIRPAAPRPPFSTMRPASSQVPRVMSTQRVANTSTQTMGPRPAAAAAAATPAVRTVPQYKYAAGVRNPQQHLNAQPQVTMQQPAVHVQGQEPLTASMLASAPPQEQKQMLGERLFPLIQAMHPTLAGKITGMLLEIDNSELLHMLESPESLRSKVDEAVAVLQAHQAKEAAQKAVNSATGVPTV
Sequence of Large T antigen (P03070 whole entry): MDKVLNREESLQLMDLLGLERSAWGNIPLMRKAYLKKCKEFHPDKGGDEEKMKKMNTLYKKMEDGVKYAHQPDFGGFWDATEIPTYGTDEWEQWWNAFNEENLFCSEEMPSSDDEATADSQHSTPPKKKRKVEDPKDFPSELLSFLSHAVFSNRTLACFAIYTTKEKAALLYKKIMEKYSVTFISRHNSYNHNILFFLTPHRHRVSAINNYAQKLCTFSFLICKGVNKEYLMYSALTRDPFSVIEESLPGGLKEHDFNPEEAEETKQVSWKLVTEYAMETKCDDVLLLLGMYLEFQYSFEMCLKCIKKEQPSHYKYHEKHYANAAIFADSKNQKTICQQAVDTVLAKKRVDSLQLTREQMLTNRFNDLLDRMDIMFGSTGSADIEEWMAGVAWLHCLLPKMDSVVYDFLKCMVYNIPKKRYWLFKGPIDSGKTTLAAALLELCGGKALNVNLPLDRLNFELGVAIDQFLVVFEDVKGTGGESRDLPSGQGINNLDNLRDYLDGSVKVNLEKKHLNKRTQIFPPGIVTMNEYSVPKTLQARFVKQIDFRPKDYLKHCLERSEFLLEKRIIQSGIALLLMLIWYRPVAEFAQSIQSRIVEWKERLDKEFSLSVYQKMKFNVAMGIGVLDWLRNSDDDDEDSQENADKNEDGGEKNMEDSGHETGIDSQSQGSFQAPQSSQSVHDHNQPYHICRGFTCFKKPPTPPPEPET

SMILES: CC(=O)Nc1ccc(SCC(=O)NC(=O)c2ccccc2Br)cc1
- IC50 [1]: > 66 µM (inactive)
- IC50 [2]: > 66 µM (inactive)

SMILES: CCc1ccc(C(N)=S)cc1
- IC50 [1]: > 66 µM (inactive)
- IC50 [2]: > 66 µM (inactive)

SMILES: Cc1cc(O)c(C(C)C)cc1N=C1CSC(=O)N1
- EC50 [3]: 38.9 µM (active)
- EC50 [4]: 34.6 µM (active)

SMILES: O=C(CCCCCN1C(=O)c2cccc3cccc(c23)C1=O)NC1CCS(=O)(=O)C1 (stereo not drawn)
- IC50 [5]: > 20 µM (inactive)

SMILES: O=C1NC(=O)N(Cc2ccccc2)C(=O)/C1=C/Nc1ccc(CN2CCOCC2)cc1
- EC50 [3]: > 300 µM (not active)
- EC50 [4]: > 300 µM (not active)

SMILES: Cc1sc(NC(=O)CSc2nnnn2C2CCCC2)c(C#N)c1C
- IC50 [6]: > 50 µM (inactive)

SMILES: CC(C)CCC(C(=O)O)C(C)CC(=O)NNC(=O)c1ccco1 (stereo not drawn)
- AC50 [7]: > 70 µM (inactive)
- AC50 [8]: 19.9 µM (active)

SMILES: COc1ccc(C(=O)Nc2nnc(SCC(=O)NC3CC3)s2)cc1
- AC50 [9]: 4.42 µM (active)

SMILES: C#CCOCCOCCOCCNc1nc(N2CCN(C(=O)[C@H](CCCN=C(N)N)n3cc(C(N)[C@@H](C)CC)nn3)CC2)nc(N2CCN(C(=O)[C@H](CC(N)=O)n3cc([C@@H](N)CC(N)=O)nn3)CC2)n1 (stereo partly drawn)
- IC50 [5]: > 20 µM (inactive)

SMILES: COC(C[C@H](O)C[C@@H](O)[C@H](C)OCc1ccccc1)OC
- IC50 [6]: > 50 µM (inactive)

SMILES: Cc1c(NC(=O)CSc2ccc(Cl)cc2)cccc1-c1nc2cc(Cl)ccc2o1
- EC50 [3]: > 300 µM (not active)
- EC50 [4]: > 300 µM (not active)

SMILES: O=C(CCC(=O)N/N=C/c1ccc(Br)s1)NCc1ccccc1
- IC50 [6]: > 50 µM (inactive)

SMILES: Nc1ncnc2c1ncn2CCN1CCOCC1
- EC50 [10]: > 350 µM (not active)
- EC50 [11]: > 350 µM (not active)

SMILES: CCC(CO)n1c(SCc2cc(=O)oc3cc(C)ccc23)nc2ccccc2c1=O (stereo not drawn)
- IC50 [6]: > 50 µM (inactive)

SMILES: CCOC(=O)c1[nH]c2ccccc2c1N=C(S)Nc1cccc(C)c1C
- IC50 [12]: 35.1 µM (active)
- IC50 [1]: > 66 µM (inactive)
- IC50 [2]: > 66 µM (inactive)
- IC50 [13]: 95.4 µM (active)

SMILES: Cc1ccc(C(=O)Nc2cccc(C(=O)N/N=C/c3ccccc3F)c2)cc1
- AC50 [9]: 7.43 µM (active)

SMILES: CCCOc1cccc(C2C(C(=O)c3ccco3)=C(O)C(=O)N2c2nnc(C)s2)c1 (stereo not drawn)
- EC50 [3]: 51.9 µM (active)
- EC50 [4]: 82.7 µM (active)
